The source of these data is patent US20230203045A1, “INHIBITORS OF NEK7 KINASE” (Halia Therapeutics, Inc., priority 2020, published 2023).

The assay addresses T1, full-length recombinant human NEK7 (Homo sapiens, UniProt Q8TDX7).
T1 construct: full-length recombinant human NEK7; GST (N); purchased SignalChem Nab 09-10G; host or cells: Sf9 insect cells (baculovirus)
Kind of assay: NEK7 Enzymatic Assay. It is filed as biochemical. As to conditions: casein substrate, [33P]-ATP, 2 hours at room temperature. The protocol:
Casein substrate (from bovine milk, hydrolyzed and partially dephosphorylated mixture of α, β and κ caseins, obtained from Sigma Aldrich, catalogue #C4765, diluted in distilled water to a final concentration of 1 mg/mL) and full-length recombinant human NEK7 (expressed by baculovirus in Sf9 insect cells using a N-terminal GST tag, obtained from SignalChem, catalogue #Nab 09-10G, 0.1 μg/μL) were mixed in assay buffer (20 mM Hepes pH 7.5, 10 mM MgCl2, 1 mM EGTA, 0.02% Brij35, 0.02 mg/ml BSA, 0.1 mM Na3VO4, 2 mM DTT, 1% DMSO). Compounds of interest (serial 3-fold dilution in DMSO from 10 μM to 0.5 nM) or vehicle (1% DMSO) were dispensed into the kinase reaction mixture by Acoustic technology (Echo550; nanoliter range). After incubation at room temperature for 20 minutes, the kinase reaction was initiated by addition of [^33P]-ATP (specific activity 10 μCi/μl) and the mixture was incubated at room temperature for 2 hours. The reaction was then stopped by spotting the reaction mixture on strips of phosphocellulose P81 paper. Following washing, the radioactivity of the P81 paper was measured and kinase activity data were expressed as the percent remaining kinase activity in test samples compared to vehicle reactions. IC50 values and curve fits were obtained using Prism (GraphPad Software).

Structures are written as SMILES. Some results are limits rather than exact numbers.

T1 sequence (Q8TDX7 whole entry): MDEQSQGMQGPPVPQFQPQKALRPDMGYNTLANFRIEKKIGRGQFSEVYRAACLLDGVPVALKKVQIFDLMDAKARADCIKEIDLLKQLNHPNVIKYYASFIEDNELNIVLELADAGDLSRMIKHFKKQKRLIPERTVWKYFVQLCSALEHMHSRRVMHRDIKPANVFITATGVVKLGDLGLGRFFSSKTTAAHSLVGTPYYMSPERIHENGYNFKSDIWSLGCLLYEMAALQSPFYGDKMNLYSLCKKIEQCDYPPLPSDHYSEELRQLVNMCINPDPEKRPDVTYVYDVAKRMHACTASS

One may read the IC50 as the concentration at which inhibition is half-maximal. Turning to `CC(C)(C#N)c1cc(NC(=O)Nc2ccc(-c3nn(C4CC4)c4ncnc(N)c34)cc2F)on1` [Example 52, 1-(4-(4-amino-1-cyclopropyl-1H-pyrazolo[3,4-d]pyrimidin-3-yl)-2-fluorophenyl)-3-(3-(2-cyanopropan-2-yl)isoxazol-5-yl)urea], the 50% inhibitory concentration (IC50) was below 150 nM.

As for `Cn1nc(-c2ccc(NC(=O)Nc3cc(C(C)(C)C)no3)c(Cl)c2)c2c(N)ncnc21` [Example 28, 1-(4-(4-amino-1-methyl-1H-pyrazolo[3,4-d]pyrimidin-3-yl)-2-chlorophenyl)-3-(3-(tert-butyl)isoxazol-5-yl)urea], the IC50 was above 501 nM.

Turning to `Nc1ncnc2c1c(-c1cc(F)c(NC(=O)Nc3cc(C4(C(F)(F)F)CC4)no3)cc1F)nn2C1CC1` [Example 50, 1-(4-(4-amino-1-cyclopropyl-1H-pyrazolo[3,4-d]pyrimidin-3-yl)-2,5-difluorophenyl)-3-(3-(1-(trifluoromethyl)cyclopropyl)isoxazol-5-yl)urea], the IC50 was in the range of 301 to 500 nM.

In the case of `CC(C)(F)c1cc(NC(=O)Nc2ccc(-c3nn(C4CC4)c4ncnc(N)c34)cc2F)on1` [Example 27, 1-(4-(4-amino-1-cyclopropyl-1H-pyrazolo[3,4-d]pyrimidin-3-yl)-2-fluorophenyl)-3-(3-(2-fluoropropan-2-yl)isoxazol-5-yl)urea], the concentration for half-maximal inhibition (IC50) is above 501 nM.

For `Nc1ncnc2c1c(-c1ccc(NC(=O)Nc3cc(C4(C(F)(F)F)CC4)no3)c(F)c1)nn2C1CC(O)C1` (centres unmarked) [Example 46, 1-(4-(4-amino-1-(3-hydroxycyclobutyl)-1H-pyrazolo[3,4-d]pyrimidin-3-yl)-2-fluorophenyl)-3-(3-(1-(trifluoromethyl)cyclopropyl)isoxazol-5-yl)urea], the IC50 was below 150 nM.

Regarding `CC(C)(O)Cn1nc(-c2ccc(NC(=O)Nc3cc(C4(C(F)(F)F)CC4)on3)c(F)c2)c2c(N)ncnc21` [Example 67, 1-(4-(4-amino-1-(2-hydroxy-2-methylpropyl)-1H-pyrazolo[3,4-d]pyrimidin-3-yl)-2-fluorophenyl)-3-(5-(1-(trifluoromethyl)cyclopropyl)isoxazol-3-yl)urea], the concentration for half-maximal inhibition (IC50) is 301 to 500 nM.

In the case of `CC(C)c1cc(NC(=O)Nc2ccc(-c3nn(C4CC4)c4ncnc(N)c34)cc2F)on1` [Example 41, 1-(4-(4-amino-1-cyclopropyl-1H-pyrazolo[3,4-d]pyrimidin-3-yl)-2-fluorophenyl)-3-(3-isopropylisoxazol-5-yl)urea], the IC50 is below 150 nM.

Regarding `COCCn1nc(-c2ccc(NC(=O)Nc3cc(C4(C(F)(F)F)CC4)no3)c(F)c2)c2c(N)ncnc21` [Example 57, 1-(4-(4-amino-1-(2-methoxyethyl)-1H-pyrazolo[3,4-d]pyrimidin-3-yl)-2-fluorophenyl)-3-(3-(1-(trifluoromethyl)cyclopropyl)isoxazol-5-yl)urea], the IC50 was in the range of 151 to 300 nM.

Turning to `CC(C)(C)n1cnc(NC(=O)Nc2ccc(-c3nn(C4CC4)c4ncnc(N)c34)cc2F)n1` [Example 38, 1-(4-(4-amino-1-cyclopropyl-1H-pyrazolo[3,4-d]pyrimidin-3-yl)-2-fluorophenyl)-3-(1-(tert-butyl)-1H-1,2,4-triazol-3-yl)urea], the IC50 is above 501 nM.

For `Nc1ncnc2c1c(-c1ccc(NC(=O)Nc3cc(C4(C(F)(F)F)CC4)no3)c(F)c1)nn2CCO` [Example 55, 1-(4-(4-amino-1-(2-hydroxyethyl)-1H-pyrazolo[3,4-d]pyrimidin-3-yl)-2-fluorophenyl)-3-(3-(1-(trifluoromethyl)cyclopropyl)isoxazol-5-yl)urea], the IC50 is below 150 nM.

As for `Nc1ncnc2c1c(-c1cc(F)c(NC(=O)Nc3cc(C4(C(F)(F)F)CC4)on3)cc1F)nn2C1CC1` [Example 62, 1-(4-(4-amino-1-cyclopropyl-1H-pyrazolo[3,4-d]pyrimidin-3-yl)-2,5-difluorophenyl)-3-(5-(1-(trifluoromethyl)cyclopropyl)isoxazol-3-yl)urea], the IC50 lay in the range of 301 to 500 nM.

As for `Nc1ncnc2c1c(-c1ccc(NC(=O)Nc3cc(C4(C(F)(F)F)CC4)on3)nc1)nn2C1CC1` [Example 64, 1-(5-(4-amino-1-cyclopropyl-1H-pyrazolo[3,4-d]pyrimidin-3-yl)pyridin-2-yl)-3-(5-(1-(trifluoromethyl)cyclopropyl)isoxazol-3-yl)urea], the IC50 lay within 151 to 300 nM.

In the case of `Nc1ncnc2c1c(-c1ccc(NC(=O)Nc3cc(C4(C(F)(F)F)CC4)on3)c(CO)c1)nn2C1CC1` [Example 63, 1-(4-(4-amino-1-cyclopropyl-1H-pyrazolo[3,4-d]pyrimidin-3-yl)-2-(hydroxymethyl)phenyl)-3-(5-(1-(trifluoromethyl)cyclopropyl)isoxazol-3-yl)urea], the half-inhibitory concentration (IC50) was above 501 nM.

In the case of `CC(C)(C)c1nsc(NC(=O)Nc2ccc(-c3nn(C4CC4)c4ncnc(N)c34)cc2F)n1` [Example 37, 1-(4-(4-amino-1-cyclopropyl-1H-pyrazolo[3,4-d]pyrimidin-3-yl)-2-fluorophenyl)-3-(3-(tert-butyl)-1,2,4-thiadiazol-5-yl)urea], the half-inhibitory concentration (IC50) was above 501 nM.

For the compound `Nc1ncnc2c1c(-c1ccc(NC(=O)Nc3cc(C4(C(F)(F)F)CC4)on3)c(F)c1)nn2C1CC(O)C1` (centres unmarked) [Example 60, 1-(4-(4-amino-1-(3-hydroxycyclobutyl)-1H-pyrazolo[3,4-d]pyrimidin-3-yl)-2-fluorophenyl)-3-(5-(1-(trifluoromethyl)cyclopropyl)isoxazol-3-yl)urea], the concentration for half-maximal inhibition (IC50) is below 150 nM.

Take `Nc1nccc2c1c(-c1ccc(NC(=O)Nc3cc(C4(C(F)(F)F)CC4)on3)c(F)c1)nn2C1CC1` [Example 61, 1-(4-(4-amino-1-cyclopropyl-1H-pyrazolo[4,3-c]pyridin-3-yl)-2-fluorophenyl)-3-(5-(1-(trifluoromethyl)cyclopropyl)isoxazol-3-yl)urea]: the IC50 was above 501 nM.

Take `Cc1cc(-c2nn(C3CC3)c3ncnc(N)c23)ccc1NC(=O)Nc1cc(C2(C(F)(F)F)CC2)on1` [Example 59, 1-(4-(4-amino-1-cyclopropyl-1H-pyrazolo[3,4-d]pyrimidin-3-yl)-2-methylphenyl)-3-(5-(1-(trifluoromethyl)cyclopropyl)isoxazol-3-yl)urea]: the IC50 was above 501 nM.

For the compound `CC(C)(C)c1cc(NC(=O)Nc2ccc(-c3nn(C4CC4)c4ccnc(N)c34)cc2)on1` [Example 31, 1-(4-(4-amino-1-cyclopropyl-1H-pyrazolo[4,3-c]pyridin-3-yl)phenyl)-3-(3-(tert-butyl)isoxazol-5-yl)urea], the IC50 was above 501 nM.

For the compound `CC(C)(C)c1cc(NC(=O)Nc2ccc(-c3nn(C4CC(F)(F)C4)c4ncnc(N)c34)cc2F)on1` [Example 16, 1-(4-(4-amino-1-(3,3-difluorocyclobutyl)-1H-pyrazolo[3,4-d]pyrimidin-3-yl)-2-fluorophenyl)-3-(3-(tert-butyl)isoxazol-5-yl)urea], the 50% inhibitory concentration (IC50) is above 501 nM.

Consider `CC(C)(C)c1cc(NC(=O)Nc2ccc(-c3nn(C4CC4)c4ncnc(N)c34)cc2F)sn1` [Example 35, 1-(4-(4-amino-1-cyclopropyl-1H-pyrazolo[3,4-d]pyrimidin-3-yl)-2-fluorophenyl)-3-(3-(tert-butyl)isothiazol-5-yl)urea], for which the IC50 is above 501 nM.

As for `CN1CC(n2nc(-c3ccc(NC(=O)Nc4cc(C5(C(F)(F)F)CC5)no4)c(F)c3)c3c(N)ncnc32)C1` [Example 49, 1-(4-(4-amino-1-(1-methylazetidin-3-yl)-1H-pyrazolo[3,4-d]pyrimidin-3-yl)-2-fluorophenyl)-3-(3-(1-(trifluoromethyl)cyclopropyl)isoxazol-5-yl)urea], the IC50 is above 501 nM.

For `CC(C)n1nc(-c2ccc(NC(=O)Nc3cc(C(C)(C)C)no3)c(Cl)c2)c2c(N)ncnc21` [Example 6, 1-(4-(4-amino-1-isopropyl-1H-pyrazolo[3,4-d]pyrimidin-3-yl)-2-chlorophenyl)-3-(3-(tert-butyl)isoxazol-5-yl)urea], the half-maximal inhibitory concentration (IC50) is above 501 nM.

In the case of `CCc1cc(NC(=O)Nc2ccc(-c3nn(C4CC4)c4ncnc(N)c34)cc2F)on1` [Example 42, 1-(4-(4-amino-1-cyclopropyl-1H-pyrazolo[3,4-d]pyrimidin-3-yl)-2-fluorophenyl)-3-(3-ethylisoxazol-5-yl)urea], the IC50 is 151 to 300 nM.

Regarding `CCC(CC)c1cc(NC(=O)Nc2ccc(-c3nn(C4CC4)c4ncnc(N)c34)cc2F)on1` [Example 40, 1-(4-(4-amino-1-cyclopropyl-1H-pyrazolo[3,4-d]pyrimidin-3-yl)-2-fluorophenyl)-3-(3-(pentan-3-yl)isoxazol-5-yl)urea], the IC50 fell in the range of 301 to 500 nM.

Turning to `CC(C)(C)c1nnc(NC(=O)Nc2ccc(-c3nn(C4CC4)c4ncnc(N)c34)cc2F)o1` [Example 36, 1-(4-(4-amino-1-cyclopropyl-1H-pyrazolo[3,4-d]pyrimidin-3-yl)-2-fluorophenyl)-3-(5-(tert-butyl)-1,3,4-oxadiazol-2-yl)urea], the half-maximal inhibitory concentration (IC50) is above 501 nM.

Take `COCCn1nc(-c2ccc(NC(=O)Nc3cc(C4(C(F)(F)F)CC4)on3)c(F)c2)c2c(N)ncnc21` [Example 58, 1-(4-(4-amino-1-(2-methoxyethyl)-1H-pyrazolo[3,4-d]pyrimidin-3-yl)-2-fluorophenyl)-3-(5-(1-(trifluoromethyl)cyclopropyl)isoxazol-3-yl)urea]: the IC50 lay within 151 to 300 nM.
